Key:
4T1 tumor cells [1] = test: Mouse 4T1 breast tumor model: Compound A in preventing lung and liver metastasis of a primary breast tumor (Biological Example 1); type: in vivo, BALB/c mice; conditions: 21 days; for effect on the number of large lung metastases, difference to vehicle: FIG. 3; for effect on the incidence of liver micrometastases, difference to Cisplatin at 1.2 mg/kg / effect on the incidence of liver micrometastases, difference to vehicle: FIG. 4; for effect on the number of medium lung metastases, difference to vehicle: FIG. 2
Description: Protocol Eighty-eight BALB/c mice were inoculated with 5×10^5 4T1 tumor cells (ATCC) orthotoically into the third mammary fat pad. On Day 0 of the study (2 days post-inoculation), 80 mice were randomized into 8 groups (10 mice per group). Dose administration began on Day 0 and continued for 21 days (3 weeks). Compound A was administered twice a day, Cisplatin was administered once a week, and Zometa was administered three times weekly. Tumor measurements were performed three times per week, starting when tumors were palpable (approximately 3×3 mm). Body weight measurements were taken three times per week at the same time each day. Tumor and body weight measurements fall all mice were measured prior to dose administration. On Day 21 of the treatment, mice were euthanized and the lungs exposed and the numbers of surface lung metastases were counted. The size of each metastasis was measured using a caliper in one dimenstion and categorized as follows: Small: Less than 2 mm Medium: Greater or equal to 2 mm Large: Greater or equal to 3 mm The lungs and livers from all mice were excised and placed in PLP fixative and stained for micrometastasis quantification.

4T1 tumor cells [2] = test: Mouse 4T1 breast tumor model: Compound A in combination with Cisplatin in preventing lung and liver metastasis (Biological Example 2); type: in vivo, BALB/c mice; conditions: 21 days, FIG. 7
Description: Using a variation of the mouse 4T1 breast tumor model, as described in Current Protocols in Immunology (2000), 20.2.1-20.2.16, Compound A in combination with Cisplatin was assayed to determine the efficacy of the combination therapy to prevent, treat or manage metastatic cancer in BALB/c mice.
• Vehicle: 0.5% HPMC/0.1% Tween. • Compound A: Preformulated dosing solutions in vehicle for 7 mg/kg and 21 mg/kg for oral administration. • Cisplatin: Diluted in sterile saline for 1.2 mg/kg (suboptimal clinical formulation) for intravenous administration. Protocol
Sixty-six BALB/c mice were inoculated with 5×10^5 4T1 tumor cells (ATCC) orthotoically into the third mammary fat pad. On Day 0 of the study (2 days post-inoculation), 60 mice were randomized into 6 groups (10 mice per group). Dose administration began on Day 0 and continued for 21 days (3 weeks). Compound A was administered twice a day, Cisplatin was administered once a week, and Zometa was administered three times weekly. Tumor measurements were performed three times per week, starting when tumors were palpable (approximately 3×3 mm). Body weight measurements were taken three times per week at the same time each day. Tumor and body weight measurements fall all mice were measured prior to dose administration.
On Day 21 of the treatment, mice were euthanized and the lungs exposed and the number of surface lung metastases were counted. The size of each metastasis was measured using a caliper in one dimenstion and categorized as follows:
Medium: Greater or equal to 2 mm
Large: Greater or equal to 3 mm
The lungs and livers from all mice were excised and placed in PLP fixative and stained for micrometastasis quantification.

[3] = Cisplatin 1.2 mg/kg intravenous once a week, p<0.05, Mann-Whitney Test
[4] = Cisplatin 2.4 mg/kg intravenous once a week, p<0.05, Mann-Whitney Test
[5] = Compound A 25 mg/kg oral twice a day, p<0.05, Mann-Whitney Test
[6] = Compound A 45 mg/kg oral twice a day, p<0.05, Mann-Whitney Test

N.N.[Cl][Pt][Cl] [Cisplatin, cis-diamminedichloridoplatinum(II), reference compound]
significant: effect on the number of large lung metastases, difference to vehicle (4T1 tumor cells [1]; [3]) | effect on the number of large lung metastases, difference to vehicle (4T1 tumor cells [1]; [4]) | effect on the incidence of liver micrometastases, difference to Cisplatin at 1.2 mg/kg (4T1 tumor cells [1]; [4]) | effect on the incidence of liver micrometastases, difference to Cisplatin at 1.2 mg/kg (4T1 tumor cells [1]; Cisplatin 4 mg/kg intravenous once a week, p<0.05, Mann-Whitney Test) | effect on the number of medium lung metastases, difference to vehicle (4T1 tumor cells [1]; cisplatin 4 mg/kg intravenous once a week, p<0.001, Mann-Whitney Test) | effect on reducing the number of large lung metastases, difference to vehicle (4T1 tumor cells [2]; [3])

Nc1nc(Nc2ccc3c(c2)CC[C@@H](N2CCCC2)CC3)nn1-c1cc2c(nn1)-c1ccccc1CCC2 [Compound A, 1-(6,7-dihydro-5H-benzo[6,7]cyclohepta[1,2-c]pyridazin-3-yl)-N^3-((7-(S)-pyrrolidin-1-yl)-6,7,8,9-tetrahydro-5H-benzo[7]annulene-2-yl)-1H-1,2,4-triazole-3,5-diamine]
significant: effect on the number of large lung metastases, difference to vehicle (4T1 tumor cells [1]; [5]) | effect on the incidence of liver micrometastases, difference to vehicle (4T1 tumor cells [1]; [5]) | effect on the number of medium lung metastases, difference to vehicle (4T1 tumor cells [1]; [6]) | effect on the incidence of liver micrometastases, difference to vehicle (4T1 tumor cells [1]; [6]) | effect on the incidence of liver micrometastases, difference to vehicle (4T1 tumor cells [1]; Compound A 75 mg/kg oral twice a day, p<0.05, Mann-Whitney Test) | effect on reducing the number of large lung metastases, difference to vehicle (4T1 tumor cells [2]; Compound A 7 mg/kg oral twice a day, p<0.01, Mann-Whitney Test) | effect on reducing the number of large lung metastases, difference to vehicle (4T1 tumor cells [2]; Compound A 21 mg/kg oral twice a day, p<0.01, Mann-Whitney Test)

O=P(O)(O)C(O)(Cn1ccnc1)P(=O)(O)O [Zometa, reference compound]
significant: effect on the incidence of liver micrometastases, difference to vehicle (4T1 tumor cells [1]; Zometa 0.1 mg/kg subcutaneous three times weekly, p<0.05, Mann-Whitney Test)

Reference: patent US8546433B2, “Axl inhibitors for use in combination therapy for preventing, treating or managing metastatic cancer” (Rigel Pharmaceuticals, Inc., priority 2009, dated 2013)
